The record followed here is patent publication US7728129B2, “Processes for the preparation of piperazinyl and diazapanyl benzamide derivatives” (Janssen Pharmaceutica NV, priority 2005, dated 2010).

The nature of this data set: Hygroscopicity / humidity stability of salts by Dynamic Vapour Sorption (DVS). The class given is physicochemical. As to conditions: solid salt.

Each structure is given as a SMILES string. Where a name gives a salt, the structure may show the parent alone.

Turning to `CC(C)N1CCN(C(=O)c2ccc(CN3CCOCC3)cc2)CC1` [(4-Isopropyl-piperazin-1-yl)-(4-morpholin-4-ylmethyl-phenyl)-methanone, dihydrobromide semi-hydrate salt], the “relative humidity above which the salt is hygroscopic, by DVS” value was “above 10 % RH”.
Consider `CC(C)N1CCN(C(=O)c2ccc(CN3CCOCC3)cc2)CC1.O=C(O)/C=C\C(=O)O` [(4-Isopropyl-piperazin-1-yl)-(4-morpholin-4-ylmethyl-phenyl)-methanone Bis-maleate Salt], for which the “hygroscopicity by DVS” value is “hygroscopic”.
Turning to `CC(C)N1CCN(C(=O)c2ccc(CN3CCOCC3)cc2)CC1` [(4-Isopropyl-piperazin-1-yl)-(4-morpholin-4-ylmethyl-phenyl)-methanone, dihydrochloride monohydrate salt], the “hygroscopicity by DVS” value is reported as “hygroscopic”.
`CC(C)N1CCN(C(=O)c2ccc(CN3CCOCC3)cc2)CC1.O=C(O)/C=C/C(=O)O` [(4-Isopropyl-piperazin-1-yl)-(4-morpholin-4-ylmethyl-phenyl)-methanone Mono-fumarate Salt]: the “relative humidity up to which the salt is stable, by DVS” value is reported as “up to 70%”.
As to `CC(C)N1CCN(C(=O)c2ccc(CN3CCOCC3)cc2)CC1` [(4-Isopropyl-piperazin-1-yl)-(4-morpholin-4-ylmethyl-phenyl)-methanone Mono-succinate Salt], the “hygroscopicity by DVS” value (Mono-succinate Salt) was “non-hygroscopic”.
